Test results: the NIST ThermoML archive (doi:10.1016/j.fluid.2005.06.019)

What was measured:
[1] = Liquid; for mass density: 101.33 kPa
[2] = refractive index (Na D-line) (dimensionless); details: 298.15 K; 101.33 kPa; Liquid; Standard Abbe refractometry

CC(C)CO [2-methyl-1-propanol]
[1]
Details | mass density [kg/m3] | vapor or sublimation pressure [kPa]
298.15 K | 797.83 | –
381.09 K | – | 101.3

Details | refractive index
[2] | 1.3937

CC(=O)OCC(C)C [2-methylpropyl ethanoate]
[1]
Details | mass density [kg/m3] | vapor or sublimation pressure [kPa]
293.15 K | 866.12 | –
389.9 K | – | 101.3

Details | refractive index
[2] | 1.3876

CCCCCCO [hexan-1-ol]
[1]
Details | mass density [kg/m3] | vapor or sublimation pressure [kPa]
298.15 K | 814.85 | –
356.39 K | – | 5
364.42 K | – | 7.5
368.04 K | – | 8.9
372.23 K | – | 10.9
376.68 K | – | 13.4
379.61 K | – | 15.3
384.92 K | – | 19.3
384.93 K | – | 19.3
390.31 K | – | 24.2
394.34 K | – | 28.5
398.14 K | – | 33.1
401.57 K | – | 37.8
404.56 K | – | 42.3
407.43 K | – | 47.1
410.27 K | – | 52.2
412.75 K | – | 57
414.93 K | – | 61.5
417.18 K | – | 66.4
417.28 K | – | 66.7
419.52 K | – | 71.9
421.96 K | – | 78
424.54 K | – | 84.8
426.31 K | – | 89.8
428.2 K | – | 95.3
429.97 K | – | 100.8
430 K | – | 101.5
430.06 K | – | 101.3
430.26 K | – | 101.7

Details | refractive index
[2] | 1.4162
